Reference: patent US20210400977A1, “META-DIAMIDE COMPOUNDS FOR CONTROLLING INVERTEBRATE PESTS” (FMC Corporation, priority 2018, published 2021)

Tests used:
[1] = tested on: sweetpotato whitefly (Bemisia tabaci (Gennadius)); test: Test G: control of sweetpotato whitefly through contact and/or systemic means; format: in vivo; conditions: 312 h, assessed after 13 days
Protocol: (§1) Test compounds were formulated using a solution containing 10% acetone, 90% water and 300 ppm Activator 90® non-ionic surfactant (Loveland Products, Loveland, Colo., USA). The formulated compounds were applied in 1 mL of liquid through an atomizer nozzle positioned 1.27 cm (0.5 inches) above the top of each test unit. Test compounds were sprayed at the rates indicated, and each test was replicated three times.
For evaluating control of the sweetpotato whitefly (Bemisia tabaci (Gennadius)) through contact and/or systemic means, the test unit consisted of a small open container with a 12-14-day-old cotton plant or 7-9-day-old soybean plant inside. Prior to the spray application, both cotyledons were removed from the plant, leaving one true leaf for the assay. Adult whiteflies were allowed to lay eggs on the plant and then were removed from the test unit. Cotton or soybean plants infested with at least 15 eggs were submitted to the test for spraying.
Test compounds were formulated and sprayed at 250 and/or 50 ppm. After spraying, the test units were allowed to dry for 1 hour. The cylinders were then removed, and the units were taken to a growth chamber and held for 13 days at 28° C. and 50-70% relative humidity. Each test unit was then visually assessed for insect mortality.

[2] = tested on: corn planthopper (Peregrinus maidis (Ashmead)); test: Test C: control of corn planthopper through contact and/or systemic means; format: in vivo; conditions: 144 h, sprayed at 250 ppm, assessed after 6 days
Protocol: as §1
For evaluating control of corn planthopper (Peregrinus maidis (Ashmead)) through contact and/or systemic means, the test unit consisted of a small open container with a 3-4-day-old corn (maize) plant inside. White sand was added to the top of the soil prior to application of the test compound.
Test compounds were formulated and sprayed at 250 and/or 50 ppm. After spraying of the formulated test compound, the test units were allowed to dry for 1 h before they were post-infested with ˜15-20 nymphs (18-to-21-day-old). A black, screened cap was placed on the top of each test unit, and the test units were held for 6 days in a growth chamber at 22-24° C. and 50-70% relative humidity. Each test unit was then visually assessed for insect mortality.

Compound	melting point [°C]	mortality at 50 ppm ([1]; sprayed at 50 ppm) [%]	mortality at 250 ppm ([1]; sprayed at 250 ppm) [%]	mortality at 250 ppm [2] [%]
CC(C)C(=O)NCc1ccc(Cl)c(NC(=O)C2C(c3cc(Cl)cc(Cl)c3)C2(Cl)Cl)c1 (stereo not shown) [Compound 136]	187 to 191			
CCC(=O)NCc1cc(NC(=O)C2C(c3cc(Cl)cc(Cl)c3)C2(Cl)Cl)ccc1F (stereo not shown) [Compound 153]		≥ 70	≥ 70	≥ 80
CC(=O)NCc1nc(NC(=O)C2C(c3ccc(F)c(Cl)c3)C2(Cl)Cl)ccc1Br (stereo not shown) [Compound 247]	170 to 173			

The next lines start with results.

melting point [°C]	Compound	mortality at 50 ppm ([1]; sprayed at 50 ppm) [%]	mortality at 250 ppm ([1]; sprayed at 250 ppm) [%]	mortality at 250 ppm [2] [%]
152 to 155	O=C(NCc1nc(NC(=O)C2C(c3ccc(F)c(Cl)c3)C2(Cl)Cl)ccc1Br)C1CC1 (stereo not shown) [Compound 254]			
184 to 187	O=C(CC(F)(F)F)NCc1nc(NC(=O)C2C(c3ccc(F)c(Cl)c3)C2(Cl)Cl)ccc1Br (stereo not shown) [Compound 256]			
